Measurements: PMC7501296, “Rapid and direct control of target protein levels with VHL-recruiting dTAG molecules” (Nature Communications, 2020)
Where “and” joins values, the source holds several entries; their conditions need not be identical. Equal values may be shown once.

System: PATU-8902 LACZ-FKBP12^F36V clone
Assay: Quantitative MS proteomics, PATU-8902 LACZ-FKBP12F36V clone
Type: cell-based, Homo sapiens
Details: for TMT intensity per TMT channel: PATU-8902 LACZ-FKBP12F36V samples, biological replicates
Protocol: Cell pellets from PATU-8902 and EWS502 cells were lysed using 8 M urea, 200 mM 4-(2-hydroxyethyl)-1-piperazinepropanesulfonic acid (EPPS) at pH 8.5 with protease inhibitors. Samples were further homogenized and DNA was sheered via sonication using a probe sonicator (20 × 0.5 s pulses; level 3). Total protein was determined using a BCA assay and stored at −80 °C until future use. A total of 100 µg of protein was aliquoted for each condition and TMT channel for further downstream processing. Protein extracts were reduced using 10 mM dithiothreitol (DTT) for 30 min at room temperature. Next, samples were alkylated with 20 mM iodoacetamide for 45 min in the dark at room temperature. To facilitate the removal of incompatible reagents, proteins were precipitated using chloroform methanol. Briefly, to 100 µL of each sample, 400 µL of methanol was added, followed by 100 µL of chloroform with thorough vortexing. Next, 300 µL of HPLC grade water was added and samples were vortexed thoroughly. Each sample was centrifuged at 14,000 × g for 5 min at room temperature. The upper aqueous layer was removed and the protein pellet was washed twice with methanol and centrifuged at 14,000 × g for 5 min at room temperature. Protein pellets were resolubilized in 200 mM EPPS buffer and digested overnight with Lys-C (1:100, enzyme:protein ratio) at room temperature. The next day, trypsin (1:100 ratio) was added and incubated at 37 °C for an additional 6 h in a ThermoMixer set to 1000 RPM.
To each digested sample, 30% anhydrous acetonitrile was added and 100 µg of peptides were labeled using 200 µg of TMT reagent (TMT1-TMT11). Following labeling, a 5% hydroxylamine solution was used to quench excess TMT reagent. To equalize protein loading, a ratio check was performed by pooling 2 µg of each TMT-labeled sample. Samples were pooled and desalted using in-house packed C18 StageTips and analyzed by LC-MS/MS. Normalization factors were calculated from this label check, samples were mixed 1:1 across all TMT channels and desalted using a 100 mg Sep-Pak solid phase extraction cartridge. Eluted pooled peptides were further fractionated with basic-pH reverse-phase (bRP) HPLC using an Agilent 300 extend C18 column and collected into a 96 deep-well plate. Samples were consolidated into 24 fractions, and 12 nonadjacent fraction were desalted using StageTips prior to analyses using LC-MS/MS[35]–[37].
All mass spectrometry data was acquired using an Orbitrap Fusion mass spectrometer in-line with a Proxeon NanoLC-1000 UHPLC system. Peptides were separated using an in-house 100 µm capillary column packed with 40 cm of Accucore 150 resin (2.6 µm, 150 Å) (Thermo Fisher Scientific) using a 180 min LC gradient per fraction. Eluted peptides were acquired using synchronous precursor selection (SPS-MS3) method for TMT quantification. Briefly, MS1 spectra were acquired at 120 K resolving power with a maximum of 50 ms in the Orbitrap. MS2 spectra were acquired by selecting the top ten most abundant features via collisional induced dissociation (CID) in the ion trap using an automatic gain control (AGC) of 15 K, quadrupole isolation width of 0.7 m/z and a maximum ion time of 100 ms. For MS3 acquisition, a synchronous precursor selection of ten fragment ions was acquired with an AGC of 150 K for 150 ms and a normalized collision energy of 55.
All acquired raw data were converted to mzXML using Raw File Reader (v3.0.77). Spectra were processed using Comet (2019.01.5)[39]–[41], search results were filtered using the LDA function MASS Package in R, and data were processed using an in-house informatics pipeline[42]–[44]. Custom code was not developed in this study. Briefly, peptide spectral libraries were first filtered to a peptide false discovery rate (FDR) of less than 1% using linear discriminant analysis employing a target decoy strategy. […]

[1] = protein LACZ-FKBP12F36V, 500 nM, 4 h

In the case of CCC(C(=O)N1CCCCC1C(=O)OC(CCc1ccc(OC)c(OC)c1)c1ccccc1OCC(=O)NCCCCCCC(=O)NC(C(=O)N1CC(O)CC1C(=O)NC(C)c1ccc(-c2scnc2C)cc1)C(C)(C)C)c1cc(OC)c(OC)c(OC)c1 (stereo not drawn) [dTAG^V-1-NEG], the “TMT intensity per TMT channel” value (protein CDK12) was 2630.52 and 3108.44 and 2718.26, the “log2 (Fold change) compared to DMSO” value (protein CRY1, 500 nM, 4 h) was -0.9118 and the “TMT intensity per TMT channel” value (protein INCENP) was 2713.73 and 2977.66 and 2766.34. For the same molecule, the “TMT intensity per TMT channel” value (protein IRS2) was 358.215 and 458.696 and 391.289, the “log2 (Fold change) compared to DMSO” value (protein LITAF, 500 nM, 4 h) was -0.2196 and the “log2 (Fold change) compared to DMSO” value (protein MPRIP, 500 nM, 4 h) was -0.5841. The “log2 (Fold change) compared to DMSO” value (protein RIOX1, 500 nM, 4 h) was 0.1069, the “log2 (Fold change) compared to DMSO” value (protein SGTA, 500 nM, 4 h) was 0.1473 and the “TMT intensity per TMT channel” value (protein SLC12A2) was 1702.64 and 1563.99 and 1824.49. The “TMT intensity per TMT channel” value (protein SLC15A4) was 247.423 and 199.538 and 213.085.

CC[C@H](C(=O)N1CCCC[C@H]1C(=O)O[C@H](CCc1ccc(OC)c(OC)c1)c1ccccc1OCC(=O)NCCCCCCC(=O)N[C@H](C(=O)N1C[C@H](O)C[C@H]1C(=O)N[C@@H](C)c1ccc(-c2scnc2C)cc1)C(C)(C)C)c1cc(OC)c(OC)c(OC)c1 [dTAG^V-1] was tested, and the “Protein levels of VHL or VHL-regulated targets” value (500 nM, 4 h) was “No significant changes”, the “log2 (Fold change) compared to DMSO” value (protein BCAR3, 500 nM, 4 h) was 0.1578 and the “TMT intensity per TMT channel” value (protein CDK12) was 2772.29 and 2668.65 and 2839.83. The “log2 (Fold change) compared to DMSO” value (protein CYBA, 500 nM, 4 h) was -0.2931, the “TMT intensity per TMT channel” value (protein INCENP) was 2143.95 and 2638.07 and 2856.47 and the “TMT intensity per TMT channel” value (protein IRS2) was 352.3 and 336.062 and 338.748. For the same molecule, the “Fold change < -2” value [1] was “+ (Fold change in which '+' refers to fold change < -2.)”, the “log2 (Fold change) compared to DMSO” value [1] was -1.082 and the “log2 (Fold change) compared to DMSO” value (protein RAB18, 500 nM, 4 h) was -0.08378. The “log2 (Fold change) compared to DMSO” value (protein SEPTIN10, 500 nM, 4 h) was 0.1418, the “TMT intensity per TMT channel” value (protein SLC12A2) was 1789.71 and 1681.54 and 1827.76 and the “TMT intensity per TMT channel” value (protein SLC15A4) was 231.802 and 205.301 and 235.055.

With CC[C@H](C(=O)N1CCCC[C@H]1C(=O)O[C@H](CCc1ccc(OC)c(OC)c1)c1ccccc1OCC(=O)NCCCCCCOc1cccc2c1C(=O)N(C1CCC(=O)NC1=O)C2=O)c1cc(OC)c(OC)c(OC)c1 (stereo partly drawn) [dTAG-13] the “TMT intensity per TMT channel” value (protein CDK12) was 2762.51 and 2603.47, the “TMT intensity per TMT channel” value (protein INCENP) was 2716.3 and 2681.24 and the “TMT intensity per TMT channel” value (protein IRS2) was 372.779 and 399.852. The “TMT intensity per TMT channel” value (protein SLC12A2) was 1746.63 and 1711.2 and the “TMT intensity per TMT channel” value (protein SLC15A4) was 223.037 and 230.942.
